Structures are written as SMILES.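 Interpolation was linear, between the two tested concentrations surrounding the appropriate level; five concentrations were tested over 48 hours in 96-well plates. TGI denotes the concentration required for complete inhibition of growth.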 A value given as a limit tells only on which side of the number the result lay.

Test systems include A549 NSCLC; ACHN renal; COLO 205 colon; HOP-62 NSCLC; MDA-MB-231 breast; MDA-MB-435; MDA-N; RPMI-8226 leukemia; U251 CNS; UO-31 renal.
What all share (assay): NCI anticancer screen, dose series, 48 h

For `Cc1ccc(S(=O)(=O)NC(=O)NC(Cc2ccc(O)c(O)c2)C(=O)O)cc1` (stereo not given), the TGI in the test with A549 NSCLC, in the test on ACHN renal, with COLO 205 colon, in the test on HOP-62 NSCLC, with MDA-MB-231 breast and with MDA-MB-435 was > 100 µM in each case. Also, the TGI in the test with MDA-N, in the test with RPMI-8226 leukemia, with U251 CNS and with UO-31 renal was > 100 µM throughout.

For `NC(=O)c1nnsc1NC=O`, the TGI with A549 NSCLC, in the test on ACHN renal, in the test with COLO 205 colon, in the test with HOP-62 NSCLC, in the test with MDA-MB-231 breast and with MDA-MB-435 was > 100 µM each time. Further, the TGI in the test with MDA-N, in the test on RPMI-8226 leukemia, in the test with U251 CNS and in the test with UO-31 renal was > 100 µM throughout.

Take `Cn1c(=O)c2c(nc(Nc3ccc(Cl)cc3)n3c(=O)n(-c4ccccc4)c(=O)n23)n(C)c1=O`: the TGI in the test with A549 NSCLC, in the test on ACHN renal, with COLO 205 colon, in the test with HOP-62 NSCLC, with MDA-MB-231 breast and in the test on MDA-MB-435 was > 100 µM each time. Also, the TGI in the test on MDA-N, in the test with RPMI-8226 leukemia, in the test with U251 CNS and in the test on UO-31 renal was > 100 µM throughout.

As to `c1ccc2c(c1)CC1COc3ccccc3C1O2` (stereo not given), the TGI in the test on A549 NSCLC, with ACHN renal, in the test with COLO 205 colon, with HOP-62 NSCLC, with MDA-MB-231 breast and with MDA-MB-435 was > 100 µM each time. The TGI in the test with MDA-N, in the test on RPMI-8226 leukemia, in the test on U251 CNS and in the test on UO-31 renal was > 100 µM throughout.

With `CC(=O)OCC1OC(O/C=C(\CN=[N+]=[N-])C(C)=O)C(OC(C)=O)C(OC(C)=O)C1OC(C)=O` (stereo not given), the TGI in the test with A549 NSCLC is 46.2 µM; in the test on ACHN renal, 12.4 µM; in the test on COLO 205 colon it was 3.9 µM; in the test with HOP-62 NSCLC, 70.7 µM; with MDA-MB-231 breast it was 27.7 µM; with MDA-MB-435, 26.7 µM. The TGI with MDA-N came to 30 µM; in the test on RPMI-8226 leukemia, 5.18 µM; with U251 CNS, 26.8 µM; in the test on UO-31 renal, 21.4 µM.

For `Cc1ccc(S(=O)(=O)N2CCNCCN(S(=O)(=O)c3ccc(C)cc3)CCN(S(=O)(=O)c3ccc(C)cc3)CC2)cc1`, the TGI in the test on A549 NSCLC, in the test on ACHN renal, in the test with COLO 205 colon, in the test on HOP-62 NSCLC, in the test on MDA-MB-231 breast and in the test with MDA-MB-435 was > 100 µM in each case. Further, the TGI with MDA-N, with RPMI-8226 leukemia, in the test with U251 CNS and in the test with UO-31 renal was > 100 µM each time.

As to `CC(=O)N1c2ccccc2C(C)C1c1[nH]c2ccccc2c1C` (stereo not given), the TGI in the test on A549 NSCLC is 83.2 µM; with ACHN renal, > 100 µM; in the test with COLO 205 colon, 27.9 µM; in the test on HOP-62 NSCLC, 36.6 µM; with MDA-MB-231 breast, 53.5 µM; with MDA-MB-435, 50.4 µM. The TGI turned out to be 50.6 µM with MDA-N, 73 µM with RPMI-8226 leukemia, 51.5 µM with U251 CNS and 47.6 µM with UO-31 renal.

Regarding `CCOC(=O)Cn1c(=O)c2cc(-c3ccccc3)cc3c(Cl)nc4c(OC)c(OC)cc1c4c32`, the TGI in the test on A549 NSCLC is > 100 µM; with ACHN renal, > 65.5 µM; with COLO 205 colon, > 100 µM; in the test with HOP-62 NSCLC, > 100 µM; in the test on MDA-MB-231 breast, > 100 µM; in the test with MDA-MB-435, 38.3 µM. Also, the TGI in the test on MDA-N was 43.2 µM; in the test with RPMI-8226 leukemia, 46.8 µM; in the test on U251 CNS, > 100 µM; with UO-31 renal, 43.8 µM.

Turning to `c1ccc(-c2cc(-c3cccs3)c(-c3cccs3)o2)cc1`, the TGI in the test on A549 NSCLC, in the test on ACHN renal, with COLO 205 colon, in the test on HOP-62 NSCLC, with MDA-MB-231 breast and with MDA-MB-435 was > 100 µM in each case. For the same molecule, the TGI in the test on MDA-N, in the test on RPMI-8226 leukemia, in the test on U251 CNS and in the test with UO-31 renal was > 100 µM each time.

With `COc1cc2c(cc1OCCCC(=O)Nc1cc(C(=O)NCCCN(C)C)n(C)n1)N=CC1CCCN1C2=O` (stereo not given), the TGI in the test on A549 NSCLC was > 41.6 µM; in the test on ACHN renal, 12.6 µM; in the test on COLO 205 colon, > 23 µM; with HOP-62 NSCLC, > 43.7 µM; with MDA-MB-231 breast it was > 39.9 µM; in the test on MDA-MB-435, > 100 µM. For the same molecule, the TGI in the test on MDA-N is 73.2 µM; in the test with RPMI-8226 leukemia, 17.6 µM; with U251 CNS, > 20.7 µM; in the test with UO-31 renal, 24.3 µM.

Take `S=C(Nc1ccccn1)Nc1ccccc1Cl`: the TGI in the test with A549 NSCLC, in the test on ACHN renal, in the test on COLO 205 colon, in the test on HOP-62 NSCLC, in the test with MDA-MB-231 breast and in the test with MDA-MB-435 was > 100 µM throughout. Further, the TGI in the test on MDA-N, in the test with RPMI-8226 leukemia, with U251 CNS and in the test with UO-31 renal was > 100 µM each time.

For the molecule `Clc1c(C(Cl)(Cl)Cl)nsc1N1CCCCC1`, the TGI in the test with A549 NSCLC is > 100 µM; in the test with ACHN renal, > 100 µM; in the test with COLO 205 colon, 30.5 µM; with HOP-62 NSCLC, 73.8 µM; in the test with MDA-MB-231 breast, 77.5 µM; with MDA-MB-435, 66.1 µM. In addition, the TGI is > 100 µM in the test with MDA-N, 40.9 µM in the test on RPMI-8226 leukemia, > 100 µM in the test with U251 CNS and 44.3 µM in the test on UO-31 renal.

On to `O=C(OCCC12CC3CC(CC(C3)C1)C2)c1ccc(NCc2cc(O)ccc2O)cc1`, for which the TGI in the test with A549 NSCLC came to 15.7 µM; in the test with ACHN renal, 5.18 µM; with COLO 205 colon, 1.2 µM; in the test with HOP-62 NSCLC it was 13.4 µM; in the test on MDA-MB-231 breast, 5.31 µM; with MDA-MB-435, 3.84 µM. The TGI was determined as 3.38 µM in the test with MDA-N, 0.666 µM in the test on RPMI-8226 leukemia, 2.95 µM in the test on U251 CNS and 1.58 µM with UO-31 renal.

With `O=[N+]([O-])c1ccc2c(c1)c(S(=O)(=O)O)cc1nonc12`, the TGI in the test on A549 NSCLC, in the test on ACHN renal, in the test with COLO 205 colon, in the test on HOP-62 NSCLC, with MDA-MB-231 breast and with MDA-MB-435 was > 100 µM throughout. For the same molecule, the TGI in the test with MDA-N, in the test on RPMI-8226 leukemia, in the test with U251 CNS and with UO-31 renal was > 100 µM each time.

The values are drawn from PubChem BioAssay (NCI).
